# US6169181A, “Compounds useful to treat retroviral infections” (Pharmacia & Upjohn Company, priority 1998, dated 2001)
# “And” between values parts separate entries of the source, which are not always exact repeats. Equal values may be shown once.
# Tests used:
# [1] = target: T1, single chain tethered (tandem) HIV protease (HIV-1 M:B_HXB2R, UniProt P04585); experiment: Tandem HIV protease assay; format: biochemical; settings: read-out: FITC KI; Table II; enzyme HIV1TANDEM
# T1 construct: purified enzyme, FITC/biotin substrate assay
# Method: In the enzyme inhibition assay described above, the sensitivity of Ki value determination is in part limited by the ability to continue to lower the enzyme concentration for compounds with high binding affinity. To prevent de-dimerization at low enzyme concentration, a tandemly linked enzyme is prepared in which the two monomers are covalently linked by an appropriate stretch of amino acid residues. Using the latter enzyme, the sensitivity of the inhibition assay is improved since much lower enzyme concentration can be utilized, as compared to the condition using the wild-type enzyme.
# The starting inhibitor concentrations are determined based on preliminary enzyme inhibition screening results which estimate the expected potency of the inhibitor. Inhibitor concentrations are then prepared using the Biomek 1000 (Beckman) and the Quadra 96 (Tomtec). Substrate (biotinylated at the amino terminal arginine and fluorescently labeled with fluorescein at the carboxyl terminal lysine), inhibitor and the tandem enzyme are allowed to react in solution at pH 5.5 (buffers identical to those used with the native dimeric enzyme) in the dark for 96 hours. Streptavidin coated polystyrene beads are added to stop the reaction. The labeled cleavage product is separated from unreacted substrate via filtration. Residual fluorescence is quantitated with the Idexx SM2000 (Idexx) and the resulting data are analyzed using the NLLSF program.
# HIV-1 protease [2] = target: T2, HIV-1 protease (Human immunodeficiency virus type 1 group M subtype B, UniProt P04585); experiment: biochemical; settings: Table II; enzyme HIV-1; read-out: FITC KI
# Method in brief: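 Biotinylated, FITC-labelled peptide substrate cleaved in 0.1 M sodium acetate pH 5.5, 1.0 M NaCl, 0.05% NP-40, room temperature. Filtered labelled product read by fluorescence; nonlinear least-squares fit.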
# HIV-1 protease [3] = target: T2, HIV-1 protease; experiment: biochemical; settings: Table II, enzyme HIV-1
# Method in brief: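 A substrate biotinylated at the N-terminal arginine and FITC-labelled at the C-terminal lysine was incubated with HIV-1 protease (10 μl of 0.1 μM) and compound for 1 h in the dark at room temperature. Buffer was 0.1 M sodium acetate pH 5.5, 1.0 M NaCl, 0.05% NP-40. Labelled product was separated from substrate using streptavidin beads and filtration, and the fluorescence gave percent inhibition.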
Structure (SMILES),Ki [1],also measured
"CC(C)(C)C(C1=C(O)CC(CCc2ccccc2)(CCC(F)(F)F)OC1=O)c1cccc(NS(=O)(=O)c2ccc(C#N)cn2)c1 (single isomer, unassigned) [Example 266, 5-cyano-N-[3-(R or S)-[1-[5,6-dihydro-4-hydroxy-2-oxo-6-(2-phenethyl)-6-(R or S)-(3,3,3-trifluoropropyl)-2H-pyran-3-yl]-2,2-dimethylpropyl]phenyl]-2-pyridinesulfonamide]",0.033 nM,–
"CC(C)(C)C(C1=C(O)CC(CCc2ccccc2)(CCC(F)(F)F)OC1=O)c1cccc(NS(=O)(=O)c2ccc(N)cn2)c1 (single isomer, unassigned) [Example 268, 5-amino-N-[3-(R or S)-[1-[5,6-dihydro-4-hydroxy-2-oxo-6-(2-phenethyl)-6-(R or S)-(3,3,3-trifluoropropyl)-2H-pyran-3-yl]-2,2-dimethylpropyl]phenyl]-2-pyridinesulfonamide]",0.835 nM,–
"CC(C)(C)C(C1=C(O)CC(CCc2ccccc2)(CCC(F)(F)F)OC1=O)c1cccc(NS(=O)(=O)c2ccc(N)cn2)c1 (single isomer, unassigned) [Example 271, 5-amino-N-[3-(R or S)-[1-[5,6-dihydro-4-hydroxy-2-oxo-6-(2-phenethyl)-6-(R or S)-(3,3,3-trifluoropropyl)-2H-pyran-3-yl]-2,2-dimethylpropyl]phenyl]-2-pyridinesulfonamide]",0.051 nM,–
"CC(C)(C)C(C1=C(O)CC(CCc2ccccc2)(CCC(F)(F)F)OC1=O)c1cccc(NS(=O)(=O)c2ccc(C#N)cn2)c1 (single isomer, unassigned) [Example 272, 5-cyano-N-[3-(R or S)-[1-[5,6-dihydro-4-hydroxy-2-oxo-6-(2-phenethyl)-6-(R or S)-(3,3,3-trifluoropropyl)-2H-pyran-3-yl]-2,2-dimethylpropyl]phenyl]-2-pyridinesulfonamide]",3.6 nM,–
"CCC(C1=C(O)CC(CCc2ccccc2)(CCc2ccccc2)OC1=O)c1cccc(NS(=O)(=O)c2ccc(C(F)(F)F)cn2)c1 (single isomer, unassigned) [Example 287, 5-Trifluoromethyl-N-[3-(R or S)-[1-[4-hydroxy-2-oxo-6,6-di-phenethyl-5,6-dihydro-2H-pyran-3-yl]-propyl]-phenyl]-2-pyridinesulfonamide]",0.038 nM,–
"CCC(C1=C(O)CC(CCc2ccccc2)(CCc2ccccc2)OC1=O)c1cccc(NS(=O)(=O)c2cc(C(F)(F)F)ccn2)c1 (single isomer, unassigned) [Example 289, 4-Trifluoromethyl-N-[3-(R or S)-[1-[4-hydroxy-2-oxo-6,6-di-phenethyl-5,6-dihydro-2H-pyran-3-yl]-propyl]-phenyl]-2-pyridinesulfonamide]",0.133 nM,–
"CCC(C1=C(O)CC(CCc2ccccc2)(CCc2ccccc2)OC1=O)c1cccc(NS(=O)(=O)c2cc(C(F)(F)F)ccn2)c1 (single isomer, unassigned) [Example 290, 4-Trifluoromethyl-N-[3-(R or S)-[1-[4-hydroxy-2-oxo-6,6-di-phenethyl-5,6-dihydro-2H-pyran-3-yl]-propyl]-phenyl]-2-pyridinesulfonamide]",1.88 nM,–
"CCCC1(CCc2ccccc2)CC(O)=C(C(c2cccc(NS(=O)(=O)c3ccc(C(F)(F)F)cn3)c2)C(C)(C)C)C(=O)O1 (single isomer, unassigned) [Example 295, 5-Trifluoromethyl-N-[3 (R or S)-[1-[5,6-dihydro-4-hydroxy-2-oxo-6(R or S)-(2-phenethyl)-6(R or S)-n-propyl-2H-pyran-3-yl]-2,2-dimethylpropyl]-phenyl]-2-pyridinesulfonamide]",0.071 nM,–
"CCCC1(CCc2ccccc2)CC(O)=C(C(c2cccc(NS(=O)(=O)c3cc(C(F)(F)F)ccn3)c2)C(C)(C)C)C(=O)O1 (single isomer, unassigned) [Example 296, 4-Trifluoromethyl-N-[3(R or S)-[1-[5,6-dihydro-4-hydroxy-2-oxo-6(R or S)-(2-phenethyl)-6(R or S)-n-propyl-2H-pyran-3-yl]-2,2-dimethylpropyl]-phenyl]-2-pyridinesulfonamide]",0.042 nM,–
"CCC[C@@]1(CCc2ccccc2)CC(O)=C([C@@H](c2cccc(NS(=O)(=O)c3ccc(C#N)cn3)c2)C(C)(C)C)C(=O)O1 (single isomer, unassigned) [Example 302, 5-Cyano-N-[3(R or S)-(1-[5,6-dihydro-4-hydroxy-2-oxo-6(R or S)-(2-phenylethyl)-6-propyl-2H-pyran-3-yl]-2,2-dimethylpropyl)-phenyl]-2-pyridinesulfonamide]",1.87 nM and 3.6 nM,–
"CCC[C@@]1(CCc2ccccc2)CC(O)=C([C@@H](c2cccc(NS(=O)(=O)c3ccc(N)cn3)c2)C(C)(C)C)C(=O)O1 (single isomer, unassigned) [Example 312, 5-Amino-N-[3(R or S)-(1-[5,6-dihydro-4-hydroxy-2-oxo-6(R or S)-(2-phenylethyl)-6-propyl-2H-pyran-3-yl]-2,2-dimethylpropyl)-phenyl]-2-pyridinesulfonamide]",0.255 nM,–
"CCCC1(CCC)CC(O)=C(C(c2cccc(NS(=O)(=O)c3ccc(N)cn3)c2)C(C)(C)C)C(=O)O1 (single isomer, unassigned) [Example 320, 5-Amino-N-[3(R or S)-(1-[5,6-dihydro-6,6-dipropyl-4-hydroxy-2-oxo-2H-pyran-3-yl]-2,2-dimethyl-propyl)phenyl]-2-pyridine sulfonamide]",0.071 nM and 0.05 nM and 0.075 nM,–
"CCCC1(CCC)CC(O)=C(C(c2cccc(NS(=O)(=O)c3ccc(C#N)cn3)c2)C(C)(C)C)C(=O)O1 (single isomer, unassigned) [Example 322, 5-Cyano-N-[3(R or S)-(1-[5,6-dihydro-6,6-dipropyl-4-hydroxy-2-oxo-2H-pyran-3-yl]-2,2-dimethyl-propyl)phenyl]-2-pyridine-sulfonamide]",1.07 nM and 1.29 nM,–
"CCC(C1=C(O)CC(CCc2ccccc2)(CCc2ccccc2)OC1=O)c1cccc(NS(=O)(=O)c2cn(C)cn2)c1 (single isomer, unassigned) [Example 324, N-[3(R or S)-(1-[6,6-Bis(2-phenyl-ethyl)-5,6-dihydro-4-hydroxy-2-oxo-2H-pyran-3-yl]propyl)phenyl]-1-methyl-1H-imidazole-4-sulfonamide]",0.156 nM,–
"CCC(C1=C(O)CC(CCc2ccccc2)(CCc2ccccc2)OC1=O)c1cccc(NS(=O)(=O)c2ccc(C#N)cn2)c1 (single isomer, unassigned) [Example 326, N-[3(R or S)-(1-[6,6-Bis(2-phenyl-ethyl)-5,6-dihydro-4-hydroxy-2-oxo-2H-pyran-3-yl]propyl)phenyl]-5-cyano-2-pyridinesulfonamide]",0.029 nM,–
"Cn1cnc(S(=O)(=O)Nc2cccc(C(C3=C(O)CC(CCc4ccccc4)(CCc4ccccc4)OC3=O)C(C)(C)C)c2)c1 (single isomer, unassigned) [Example 357, N-[3-{1(R or S)-(4-Hydroxy-5,6-dihydro-2-oxo-6,6-bis(2-phenylethyl)-2H-pyran-3-yl)-2,2-dimethylpropyl}phenyl]-1-methyl-1H-imidazole-4-sulfonamide]",48.5 nM,–
"CC(C)(C)C(C1=C(O)CC(CCc2ccccc2)(CCc2ccccc2)OC1=O)c1cccc(NS(=O)(=O)c2ccc(C#N)cn2)c1 (single isomer, unassigned) [Example 359, N-[3-{1(R or S)-(4-Hydroxy-5,6-dihydro-2-oxo-6,6-bis(2-phenylethyl)-2H-pyran-3-yl)-2,2-dimethylpropyl}phenyl]-5-cyanopyridine-2-sulfonamide]",16.4 nM,–
"CCCC1(CCC)CC(O)=C(C(CC)c2cccc(NS(=O)(=O)c3ccc(N)cn3)c2)C(=O)O1 (single isomer, unassigned) [Example 363, N-[3-{1(R or S)-(4-Hydroxy-5,6-dihydro-2-oxo-6,6-dipropyl-2H-pyran-3-yl)-propyl}phenyl]-5-aminopyridine-2-sulfonamide]",0.083 nM,–
"CCC(C1=C(O)C2CCCCCC2OC1=O)c1cccc(NS(=O)(=O)c2ccc(C#N)cn2)c1 (stereo not shown) [Example 372, 5-Cyano-N-[3-[1-(2,4a,5,6,7,8,9,9a-octahydro-4-hydroxy-2-oxocyclohepta[b]pyran-3-yl)propyl]phenyl]-2-pyridinesulfonamide]",–,Ki (HIV-1 protease [2]): 4 nM; PROTEASE % INHIB. (HIV-1 protease [3]; DOSE 0.123 (unit not given)): 43.52%; PROTEASE % INHIB. (HIV-1 protease [3]; DOSE 0.370 (unit not given)): 86.68%; PROTEASE % INHIB. (HIV-1 protease [3]; DOSE 1.100 (unit not given)): 101.52%; PROTEASE % INHIB. (HIV-1 protease [3]; DOSE 3.300 (unit not given)): 99.56%; PROTEASE % INHIB. (HIV-1 protease [3]; DOSE 10.000 (unit not given)): 97.81%; PROTEASE % INHIB. (HIV-1 protease [3]; DOSE 30.000 (unit not given)): 106.18%
